Data reported in PMC11025096, “Universal Glycosyltransferase Continuous Assay for Uniform Kinetics and Inhibition Database Development and Mechanistic Studies Illustrated on ST3GAL1, C1GALT1, and FUT1” (ACS Omega, 2024).

What was measured:
FUT1 [1] = target: T1, FUT1 (Homo sapiens, UniProt P19526); assay: Michaelis-Menten kinetics, UGC continuous coupled assay (NDK/PK/LDH); format: biochemical
T1 construct: pGEn2 construct expressed in HEK293F; tag removed with TEV protease
T1 sequence (P19526 1-365): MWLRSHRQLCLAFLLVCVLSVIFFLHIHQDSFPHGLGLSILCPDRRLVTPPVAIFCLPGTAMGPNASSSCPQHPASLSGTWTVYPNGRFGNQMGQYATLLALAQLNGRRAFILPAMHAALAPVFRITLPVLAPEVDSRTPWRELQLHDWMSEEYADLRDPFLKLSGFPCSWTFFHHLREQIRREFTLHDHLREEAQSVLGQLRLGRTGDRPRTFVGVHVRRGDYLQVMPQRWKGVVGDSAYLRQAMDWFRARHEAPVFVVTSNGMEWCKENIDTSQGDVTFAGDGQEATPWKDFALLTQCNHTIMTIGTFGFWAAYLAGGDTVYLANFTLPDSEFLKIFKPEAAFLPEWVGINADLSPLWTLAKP

ST3GAL1 [2] = target: T2, ST3GAL1 (Homo sapiens, UniProt Q11201); assay: Michaelis-Menten kinetics, UGC continuous coupled assay (CMK/NDK/PK/LDH); format: biochemical
T2 construct: pGEn2 construct expressed in HEK293F; tag removed with TEV protease
T2 sequence (Q11201 1-340): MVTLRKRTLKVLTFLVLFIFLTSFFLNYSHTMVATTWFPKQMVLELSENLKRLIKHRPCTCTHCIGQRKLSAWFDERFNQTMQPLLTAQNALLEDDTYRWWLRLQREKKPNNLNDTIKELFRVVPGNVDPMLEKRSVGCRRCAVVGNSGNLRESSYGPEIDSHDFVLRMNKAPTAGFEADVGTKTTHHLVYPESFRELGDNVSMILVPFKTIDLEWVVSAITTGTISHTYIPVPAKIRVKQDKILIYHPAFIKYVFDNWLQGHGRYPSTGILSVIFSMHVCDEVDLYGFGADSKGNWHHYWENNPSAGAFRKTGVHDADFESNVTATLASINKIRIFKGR

FUT1 [3] = target: T1, FUT1; assay: donor at fixed saturating concentration in UGC continuous coupled assay (NDK/PK/LDH); format: biochemical
FUT1 [4] = target: T1, FUT1; assay: UGC continuous coupled NADH fluorescence assay, […] min enzyme-inhibitor preincubation, dose response; format: biochemical
ST3GAL1 [5] = target: T2, ST3GAL1; assay: as above; format: biochemical
C1GALT1 = target: T3, C1GALT1 (Homo sapiens, UniProt Q9NS00); assay: biochemical; design: UGC coupled continuous assay, NADH fluorescence depletion, 30 min enzyme-inhibitor preincubation, 37 °C; conditions: acceptor 2x Km, donor 0.5x Km; rate at 5 min; extrapolated; read-out: Log IC50 (M) C1GALT1 (converted)
T3 construct: pGEn2 construct expressed in HEK293F (coexpressed with chaperone C1GALT1C1); tag removed with TEV protease
Experimental: (§1) Soyasaponin 1 stock solution was prepared at 1.25 mM in 2% (v/v) Triton X-100 and 10% (v/v) DMSO. Inhibition assays were performed following a method similar to that used in the kinetics study. The master mixtures included all of the components except for the inhibitor and the enzyme. A 2-fold serial dilution from the inhibitor’s stock solution was prepared in a blank solution containing 2 and 10% (v/v) Triton X-100 and DMSO, respectively. The enzyme and the inhibitor were mixed, distributed to the wells, and preincubated for 30 min at 37 °C. A 10 min incubation period was also carried out at 37 °C for the master mixture, and the reaction was initiated by adding the master mixture to the wells. […] The effect of the activity percentage was calculated at each concentration of the inhibitor as follows [drawing 1] where SI, S100, S0 are the absolute values of the slopes from the progress curves of the reaction with inhibitor, […] respectively. IC50 and pIC50 (−log IC50 in molar concentration) values were calculated as depicted in Tables S3 and S4 (Supporting Information). Rates for the comparative dose response were calculated for each enzyme at the last time point where the uninhibited reaction maintained its linearity. […] Time and dose dependent inhibition was measured at varying concentrations of Soyasaponin 1. […]

ST3GAL1 [6] = target: T2, ST3GAL1; assay: biochemical; design: UGC coupled continuous assay, NADH fluorescence depletion, 30 min enzyme-inhibitor preincubation, 37 °C; conditions: acceptor and donor at Km; 20 min; read-out: Log IC50 (M) 20 Minutes (converted)
Experimental: as §1

CMK (cytidylate kinase) = target: T4, CMK (cytidylate kinase) (Escherichia coli, UniProt P0A6I0); assay: coupled PK/LDH NADH fluorescence progress curves over CMP serial dilution; format: biochemical
T4 sequence (P0A6I0 1-227): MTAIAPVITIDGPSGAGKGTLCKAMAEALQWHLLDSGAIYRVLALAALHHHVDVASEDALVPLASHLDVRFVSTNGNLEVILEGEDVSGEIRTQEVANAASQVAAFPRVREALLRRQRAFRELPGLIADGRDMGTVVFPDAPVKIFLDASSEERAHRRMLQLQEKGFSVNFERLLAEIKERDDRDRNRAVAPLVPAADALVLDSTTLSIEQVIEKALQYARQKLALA

T3 sequence (Q9NS00 whole entry): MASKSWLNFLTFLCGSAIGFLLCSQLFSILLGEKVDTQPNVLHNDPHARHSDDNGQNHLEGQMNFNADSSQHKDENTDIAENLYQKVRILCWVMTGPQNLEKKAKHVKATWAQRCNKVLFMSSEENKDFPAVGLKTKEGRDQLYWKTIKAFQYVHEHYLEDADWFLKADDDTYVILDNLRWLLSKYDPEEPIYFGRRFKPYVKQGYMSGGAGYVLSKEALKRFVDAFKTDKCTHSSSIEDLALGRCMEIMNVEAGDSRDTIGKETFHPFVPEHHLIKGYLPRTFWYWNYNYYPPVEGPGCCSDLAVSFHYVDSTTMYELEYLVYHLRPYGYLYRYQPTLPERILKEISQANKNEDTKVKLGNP

Structure (SMILES): CC(=O)N[C@H]1[C@@H](OCc2ccccc2)O[C@H](CO)[C@H](O)[C@@H]1O[C@@H]1O[C@H](CO)[C@H](O)[C@H](O)[C@H]1O [T-Bn]
- Michaelis-Menten kinetics, UGC continuous coupled assay (NDK/PK/LDH) (FUT1 [1]): 152 min^–1 (kcat)

Structure (SMILES): CC(=O)N[C@H]1C(O)O[C@H](CO)[C@H](O)[C@@H]1O[C@@H]1O[C@H](CO)[C@H](O)[C@H](O)[C@H]1O (stereo partly drawn) [galacto-N-biose]
- Michaelis-Menten kinetics, UGC continuous coupled assay (CMK/NDK/PK/LDH) (ST3GAL1 [2]): 195 min^–1 (kcat)

Structure (SMILES): C[C@@H]1O[C@H](OP(=O)(O)OP(=O)(O)OC[C@H]2O[C@@H](n3cnc4c(=O)[nH]c(N)nc43)[C@H](O)[C@@H]2O)[C@@H](O)[C@H](O)[C@@H]1O [GDP-Fuc]
- donor at fixed saturating concentration in UGC continuous coupled assay (NDK/PK/) (FUT1 [3]): Kinetics parameters for FUT1 were calculated with a saturation concentration of the donor GDP-Fuc and variable concentrations of the acceptors

Structure (SMILES): C[C@@H]1O[C@@H](O[C@H]2[C@H](O[C@H]3[C@H](O[C@H]4CC[C@@]5(C)[C@@H](CC[C@]6(C)[C@@H]5CC=C5[C@@H]7CC(C)(C)C[C@@H](O)[C@]7(C)CC[C@]56C)[C@@]4(C)CO)O[C@H](C(=O)O)[C@@H](O)[C@@H]3O)O[C@H](CO)[C@H](O)[C@@H]2O)[C@H](O)[C@H](O)[C@H]1O [Soyasaponin1]
- IC50 (FUT1 [4]): 52 µM
- IC50 (ST3GAL1 [5]): 31 µM
- IC50 (C1GALT1): 0.000367 M
- IC50 (ST3GAL1 [6]): 5.87e-05 M

Structure (SMILES): CC(=O)N[C@H]1C(O)O[C@H](CO)[C@@H](O)[C@@H]1O[C@@H]1O[C@H](CO)[C@H](O)[C@H](O)[C@H]1O (stereo partly drawn) [lacto-N-biose]
- Michaelis-Menten kinetics, UGC continuous coupled assay (NDK/PK/LDH) (FUT1 [1]): 357 min^–1 (kcat)

Structure (SMILES): Nc1ccn([C@@H]2O[C@H](COP(=O)(O)O)[C@@H](O)[C@H]2O)c(=O)n1 [CMP]
- coupled PK/LDH NADH fluorescence progress curves over CMP serial dilution (CMK (cytidylate kinase)): the initial instant phosphorylation of CMP to CDP via CMK followed by a slower phosphorylation of CDP via PK
